Measurements reported in patent publication US20030212052A1, “Use of ursdeoxycholic acid for potentiation of the phototoxic effect of photodynamic therapy” (priority 2003, published 2003).

Key:
[1] = system: murine hepatoma 1c1c7 cell line; assay: Photokilling assessed by clonogenic assay after SnET2 PDT; format: cell-based; conditions: for number of colonies: irradiation 270 mJ/cm^2 at 630-700 nm, colonies counted four days later, mean±SD of 3-4 plates
Protocol: Cell lines. Studies have been carried out with the murine leukemia L1210 and murine hepatoma hepa 1c1c7 cell lines along with primary rat hepatocyte cultures. Except for the latter, cells are grown in tissue culture. The L1210 cell line is grown in suspension culture in Fischer's medium containing 10% horse serum. The murine hepatoma 1c1c7 cell line was obtained from Dr. J. Whitlock, Jr. (Stanford University, CA). Cells were cultured on either commercially available plastic tissue cutureware, or poly-L-lysine coated glass coverslips or discs, and grown at 37° C. in a-minimal essential medium (aMEM) containing 5% fetal bovine serum and antibiotics. Cultures were passaged by incubation with a trypsin+EDTA solution (0.25% trypsin, 1 mM EDTA in Hank's Balanced Salts Solution). Photokilling was assessed by clonogenic assays involving the plating of known numbers of cells. After several days in cell culture, the number of resulting colonies reflected the number of viable cells that survive PDT. Freshly prepared suspensions of 1c1c7 cells were plated in 60 mm culture dishes at a density of 500 cells/dish. Approximately 18 hours later cultures were treated with PDT sensitizer and/or UDCA. After 30 minutes of incubation culture dishes were washed once with complete medium and then refed with complete medium. Refed cultures were subsequently irradiated and returned to incubators. Cultures were refed every third day, and stained with crystal violet once colonies were of sufficient size to score. […] After irradiation of 270 mJ/cm^2 at 630-700 nm, the plates were incubated and the colonies were counted four days later. The data represents the mean±a standard deviation of three to four plates.

[2] = cited from earlier work
[3] = cited from earlier work; remark: listed apart in the source
[4] = UDCA analogs/conjugates
hepatoma cell line = assay: Promotion of PDT efficacy with lysosomal sensitizer in the hepatoma cell line; format: cell-based, murine; conditions: lysosomal sensitizer Npe6, hepatoma cell line
Protocol: Cell lines. Studies have been carried out with the murine leukemia L1210 and murine hepatoma hepa 1c1c7 cell lines along with primary rat hepatocyte cultures. Except for the latter, cells are grown in tissue culture. The L1210 cell line is grown in suspension culture in Fischer's medium containing 10% horse serum. The murine hepatoma 1c1c7 cell line was obtained from Dr. J. Whitlock, Jr. (Stanford University, CA). Cells were cultured on either commercially available plastic tissue cutureware, or poly-L-lysine coated glass coverslips or discs, and grown at 37° C. in a-minimal essential medium (aMEM) containing 5% fetal bovine serum and antibiotics. Cultures were passaged by incubation with a trypsin+EDTA solution (0.25% trypsin, 1 mM EDTA in Hank's Balanced Salts Solution). Determination of PDT efficacy. […] The cells were then lysed and levels of caspase-3 activity are assessed using a fluorescent plate reader. […] These substrates were cleaved by caspase-3 to form fluorescent products that were then detected. The plate readers take periodic readings of the emerging fluorescence, permitting a rate to be assessed. […] Protein levels in the lysates were also determined, so that the net result was in terms of caspase-3 activity per mg protein per minute. Photokilling was assessed by clonogenic assays involving the plating of known numbers of cells. […]

C[C@H](CCC(=O)O)[C@H]1CC[C@H]2[C@@H]3[C@@H](O)C[C@@H]4C[C@H](O)CC[C@]4(C)[C@H]3CC[C@]12C [UDCA, ursodeoxycholic acid]
number of colonies ([1]; UDCA 10 micromoles + SnET2 (2-mM)): 12±5 colonies | colonies as percent ([1]; UDCA 10 micromoles + SnET2 PDT): 20% | number of colonies ([1]; UDCA 100 micromoles + SnET2 (2-mM)): 1±0.7 colonies | colonies as percent ([1]; UDCA 100 micromoles + SnET2 PDT): 1.3% | hepatic extraction ([2]; once absorbed after oral administration, absence of liver disease): about 50% | absorption after oral administration ([2]; oral administration, passive diffusion): incomplete | solubility in chloraform ([3]; chloraform): slightly soluble | solubility in ethanol and glacial acetic acid ([3]; ethanol and glacial acetic acid): freely soluble | solubility in ether ([3]; ether): sparingly soluble | solubility in water ([3]; water): practically insoluble

C[C@H](CCC(=O)NCCS(=O)(=O)O)[C@H]1CC[C@H]2[C@@H]3[C@@H](O)C[C@@H]4C[C@H](O)CC[C@]4(C)[C@H]3CC[C@]12C [UDCA-taurine]
promotion of photodynamic therapeutic photokilling [4]: effective

C[C@H](CCC(=O)NCC(=O)O)[C@H]1CC[C@H]2[C@@H]3[C@@H](O)C[C@@H]4C[C@H](O)CC[C@]4(C)[C@H]3CC[C@]12C [UDCA-glycine]
promotion of photodynamic therapeutic photokilling [4]: effective

C=Cc1c(C)c2cc3nc(c(CC(=O)N[C@@H](CC(=O)[O-])C(=O)[O-])c4nc(cc5[nH]c(cc1[nH]2)c(C)c5CC)C(C)=C4C(=O)[O-])[C@@H](CCC(=O)[O-])[C@@H]3C.[Na+].[Na+].[Na+].[Na+] [Npe6]
promotion of photodynamic therapy efficacy by the potentiator (hepatoma cell line): no evidence of promotion
